# Structures can show the parent of a compound that is named as a salt.
# How the values were obtained:
# Format in all cases: in vivo
# [1] = tested on: NC/Nga mice manifesting atopic dermatitis; assay: Test Example 2: effect on the spontaneous, itch-evoked scratching behavior of NC mice (percent itch suppression); conditions: for % Inhibition (percent itch suppression): total 24-hr scratching counts before vs after, N = 8
# Procedure: Twenty-week-old NC/Nga mice each weighing about 30 g and manifesting atopic dermatitis were purchased from SLC and subjected to the following experiment. A magnet was buried in both hind paws of each mouse and by detecting its magnetism, the movement of the paws was measured with an itch measuring system (product of Neuroscience). Among the scratching actions, those lasting 1.5 seconds or longer were considered itch-evoked and their number was counted continuously. […] Prostaglandin E2 (PGE2; Cayman Chemical), prostaglandin D2 (PGD2; Cayman Chemical), limaprost (synthetic), sulprostone (synthetic) and beraprost (synthetic) were used as drugs according to the present invention. The subsequent 24-hr itch-evoked scratching behavior was measured and the number of itch-evoked scratchings after drug application was compared with the initial count. The experimental data was processed to calculate the percent itch suppression on the basis of the total 24-hr itch-evoked scratching counts before and after drug application (Table 2). [formula]
# For significance testing, the itch-evoked scratching counts that were obtained before and after drug application from individual animals in each group treated with a specific concentration of drug were processed by a paired t-test. Differences with a significance level of 0.5% or less were determined as “significant.”
# The same test was repeated using 100% ethanol as a control and, as comparative drugs, dexamethasone (a steroid; Wako Pure Chemical Industries, Ltd.), tacrolimus (FK-506, an immunosuppressive; Fujisawa Pharmaceutical Co., Ltd.) and chlorpheniramine maleate (an antihistamine; Kongo Chemical Co., Ltd.) at the concentrations shown in Table 2 below, provided that chlorpheniramine maleate was administered orally.
# [2] = tested on: dermatitis manifesting NC mice; assay: Test Example 3: effect on dermatitis manifesting NC mouse models (dermatitis score); conditions: 0.01% in 100% ethanol, 200 μl on dorsal back seven times a week for 4 weeks; FIGS. 1 and 2; P<0.05
# Procedure: By suitably modifying a method known to the skilled artisan (Jpn. J. Pharmacol. 76, 175-183 (1998) Jun Hiroi, et al. Effects of Tacrolimus Hydrate (FK-506) Ointment on Spontaneous Dermatitis in NC/Nga Mice), the following test was conducted in order to confirm the antipruritic effect of prostaglandins. (Method) Animals: Four-week old SPF NC mice (male) were purchased from Japan SLC; right after their arrival, the SPF NC mice were kept together with dermatitis manifesting male NC mice (older than 20 weeks) for 2 weeks under the following conditions so as to induce itch-evoked scratching behavior. A group of mice manifesting dermatitis and another group of mice not manifesting dermatitis, each consisting of four animals, were allowed to cohabit in a sawdust cage (34×17×39 cm) and kept in an animal house set at room temperature (23±3° C.) and at a humidity of 55±15% under illumination for 12 hours (from 7:00 am to […]). After 2-wk cohabitation, the purchased mice were taken out of the cage and transferred into another cage, where a group of 8 animals were further kept for 14 weeks until the test. […] The mean value ± standard deviation was calculated from the dermatitis scores for each group, and then statistically processed by t-test to determine statistical significance between each drug administration group and ethanol-treated group.
# [3] = tested on: NC/Nga mice manifesting atopic dermatitis; assay: Case 2: effects of external use of tacrolimus and dexamethasone on spontaneous itch-evoked scratching behavior in NC/Nga mice; conditions: 0.1% in 100% ethanol, 200 μl applied onto head and dorsal skin; paw movements lasting 1.5 seconds or longer; before application: tacrolimus group 600 ± 64, dexamethasone group 567 ± 77
# Procedure: Experimental animals used were 14-week-old NC/Nga male mice, each weighing about 30 g and manifesting atopic dermatitis, and were divided into groups of 6 mice each.
# To perform this test, a commercially available itch measuring system (product of Neuroscience) was used. After magnets for scratch measurement were inserted into both hind paws of each of the above animals, the animals were individually placed in a measurement cage and measured for the number of scratchings over 24 hours (the value before drug application). Then, 200 μl each of 0.1% tacrolimus (Fujisawa Pharmaceutical Co., Ltd.) and dexamethasone (Wako Pure Chemical Industries, Ltd.) dissolved in 100% ethanol were applied onto the head and dorsal skin, followed by recording again the number of scratchings over 24 hours (the value after drug application). The control group received 100% ethanol alone. The results obtained were processed to score itch-evoked scratching behavior, assuming that each paw movement lasting 1.5 seconds or longer was counted as one scratch reflex, followed by statistical analysis to determine statistical significance between the values before and after drug application.
# [4] = tested on: NC/Nga mice manifesting atopic dermatitis; assay: Test Example 1: effect on the spontaneous, itch-evoked scratching behavior of NC mice; conditions: for % Occurrence of scratching behavior: 0.1% in 100% ethanol, 0.2 ml/mouse on dorsal skin, count before drug application set to 100%, scratchings 1.5 seconds or longer, N = 6
# Procedure: Twenty-week-old NC/Nga mice each weighing about 30 g and manifesting atopic dermatitis were purchased from SLC and subjected to the following experiment. A magnet was buried in both hind paws of each mouse and by detecting its magnetism, the movement of the paws was measured with an itch measuring system (product of Neuroscience). Among the scratching actions, those lasting 1.5 seconds or longer were considered itch-evoked and their number was counted continuously. […] Since there was a wide range of variation among individual animals, the experimental data was scored assuming that the initial count before drug application was set to 100%. The same test was repeated using 100% ethanol as a control and dexamethasone (a steroid; Wako Pure Chemical Industries, Ltd.) and tacrolimus (an immunosuppressive; Fujisawa Pharmaceutical Co., Ltd.) as comparative drugs.
# [5] = concentration 0.01% in 100% ethanol, 0.2 ml/mouse on dorsal skin
# [6] = concentration 0.1% in 100% ethanol, 0.2 ml/mouse on dorsal skin
# [7] = external application of 0.1%, same extent as dexamethasone and tacrolimus
smiles,measurement,setting,value
"CC#CCC(C)[C@H](O)/C=C/[C@@H]1[C@H]2c3cccc(CCCC(=O)O)c3O[C@H]2C[C@H]1O (mixture of isomers) [Beraprost, beraprost]",% Inhibition (percent itch suppression),[1]; [5],45.6%
same,% Inhibition (percent itch suppression),[1]; [6],56.9%
same,effect on dermatitis scores compared to the ethanol-treated group,[2],significant suppressive effect
"CN(C)CCC(c1ccc(Cl)cc1)c1ccccn1 (centres unmarked) [Chlorpheniramine, chlorpheniramine maleate]",% Inhibition (percent itch suppression),"[1]; 10 mg/kg, p.o.",3.56%
same,suppression of spontaneous itch-evoked scratching behavior (in words),"[1]; administered orally, 10 mg/kg",no suppression
"C[C@@H]1C[C@H]2[C@@H]3CCC4=CC(=O)C=C[C@]4(C)[C@@]3(F)[C@@H](O)C[C@]2(C)[C@@]1(O)C(=O)CO [Dexamethasone, dexamethasone]","number of scratchings over 24 hours, after drug application",[3],286 ± 52
same,% Occurrence of scratching behavior,[4],50 ± 9 %
same,% Inhibition (percent itch suppression),[1]; [6],49.5%
"CCCC[C@H](C)C[C@H](O)/C=C/[C@H]1[C@H](O)CC(=O)[C@@H]1CCCC/C=C/C(=O)O [Limaprost, limaprost]",% Inhibition (percent itch suppression),"[1]; concentration 0.001% in 100% ethanol, 0.2 ml/mouse on dorsal skin",36.2%
same,% Inhibition (percent itch suppression),[1]; [5],79.9%
same,effect on dermatitis scores compared to the ethanol-treated group,[2],significant suppressive effect
"CCCCC[C@H](O)/C=C/[C@H]1C(=O)C[C@H](O)[C@@H]1C/C=C\CCCC(=O)O [PGD2, prostaglandin D2]",% Inhibition (percent itch suppression),[1]; [5],56.3%
"CCCCC[C@H](O)/C=C/[C@H]1[C@H](O)CC(=O)[C@@H]1C/C=C\CCCC(=O)O [PGE2, prostaglandin E2]",% Occurrence of scratching behavior,[4],46 ± 10 %
same,effect on spontaneous itch-evoked scratching behavior (in words),[4]; [7],strongly reduced
same,% Inhibition (percent itch suppression),[1]; [6],54.3%
same,effect on spontaneous itch-evoked scratching behavior in NC mice (in words),[1]; [7],strongly reduced
"CS(=O)(=O)NC(=O)CCC/C=C\C[C@H]1C(=O)C[C@@H](O)[C@@H]1/C=C/[C@@H](O)COc1ccccc1 [Sulprostone, sulprostone]",% Inhibition (percent itch suppression),[1]; [5],24.0%
"C=CC[C@@H]1/C=C(\C)C[C@H](C)C[C@H](OC)[C@H]2O[C@@](O)(C(=O)C(=O)N3CCCC[C@H]3C(=O)O[C@H](/C(C)=C/[C@@H]3CC[C@@H](O)[C@H](OC)C3)[C@H](C)[C@@H](O)CC1=O)[C@H](C)C[C@@H]2OC [Tacrolimus, tacrolimus]","number of scratchings over 24 hours, after drug application",[3],267 ± 45
same,% Occurrence of scratching behavior,[4],45 ± 8 %
same,% Inhibition (percent itch suppression),[1]; [6],55.5%

# From patent publication US20040266880A1, “Antipruritics” (priority 2002, published 2004)
